Legend:
Type in all cases: cell-based
UT in human U87 glioma = test: Flow cytometry of cell surface UT in U87 glioma; conditions: hUII 10^−8 M, 30 min
Protocol: (§1) The human cell line from glioblastoma U87 was obtained from the American Type Culture Collection (LGC Standards, Molsheim, France). U87 cells were maintained in DMEM containing 10% FBS and 1% sodium pyruvate. NHA-Astrocytes (Lonza, Walkersville, MD, USA) were cultivated in DMEM culture medium supplemented with 2 mM glutamine, 5 mM HEPES, 1% non essential amino acids, 1% sodium pyruvate, B27, 25 ng/ml EGF, 1% of the antibiotic-antimycotic solution and 10% FBS. All cells were incubated at 37°C in a humidified atmosphere containing 5% CO2. Culture media were replaced every three days.
(§2) Human astrocytes and glioma U87 grown in 75-cm2 flasks until confluence were washed in PBS, detached and spun down at 4°C. The cell pellet was washed, re-suspended in PBS containing 1% BSA and incubated with 10 µg/mL non-immune rabbit IgGs for 30 min. […] Cells were incubated with an FITC- or PerCP-conjugated goat anti-rabbit secondary antibody (Santa Cruz) diluted 1∶200 and measured in the FL1 (530 nm) or FL3 (670 nm) channel. Cells were analyzed on a FACScalibur flow cytometer (BD Biosciences) operated with the Cell QuestTM software. Samples in which the primary antibodies were omitted were used as control to normalize mean fluorescence levels. […] Each histogram plot was recorded from at least 10,000 gated events.

[1] = system: UT in native human astrocytes; test: Flow cytometry of cell surface UT in native human astrocytes; conditions: hUII 10^−8 M, 30 min
Protocol: as §1, §2

[2] = system: GABAAR (β3^HA) at the plasma membrane, no UT; test: GABAAR internalization by immunofluorescence in CHO expressing GABAAR alone; conditions: hUII 10^−8 M, Iso 10^−4 M or both
Protocol: (§3) For double-immunofluorescence, non-permeabilized living CHO cells expressing UT and/or α2β3 ^HAγ2 GABAA receptors were washed two times in PBS, and incubated with monoclonal mouse anti-c-myc and rabbit polyclonal anti-HA (1∶200, Santa-cruz) for 1 h on ice in DMEM. Excess antibody was removed and cells were incubated with the different receptor agonists for 30 min at RT. After several rinses in PBS, cells were fixed in 4% paraformaldehyde at 4°C for 20 min, washed three times in PBS and then incubated at RT for 2 h with appropriate secondary antibodies, i.e. Alexa-488- and 594-conjugated donkey anti-mouse IgGs diluted 1∶300 (Invitrogen). After washing, coverslips were mounted in Eukitt (VWR International, Strasbourg, France).
(§4) All preparations were examined using a confocal laser-scanning microscope (Leica, Heidelberg, Germany) equipped with a Diaplan optical system, a UV laser (excitation wavelength 405 nm) and argon/krypton ion (excitation wavelengths 488/594 nm) laser.

human UT^c-myc = test: Cell surface ELISA of UT^c-myc in CHO; conditions: hUII 10^−8 M, 30 min
From the text: For UT epitope-tagged with HA (UT^HA), or c-myc (UT^c-myc), human UT receptor cDNA inserted into pcDNA3.1 (Ressource Center, MI, USA) was amplified and PCR products were subcloned using the EcoRI and XhoI sites of pCMV-HA or pCMV-c-myc. Mutant UT receptor cDNAs were constructed by oligonucleotide-directed mutagenesis (Expand High Fidelity PCR System; Roche) using the human UT receptor cDNA inserted into pcDNA3.1 as a template. Two sets of forward and reverse oligonucleotides were used (Table S2) to introduce stop codons in frame of Leu370, Phe351, Gly332 and Thr319 (to generate UT371, UT351, UT332 and UT319, respectively). PCR products were subcloned using the EcoRI and XhoI sites of pCMV-HA after digestion by the same restriction enzymes. Mutagenesis was confirmed by automated nucleotide sequencing.
Cells were plated at 50 000 cells/well in 96-well plates coated with 0.1 mg/ml poly-L-ornithine (Sigma-Aldrich). […] The cells were washed four times with PBS, a colorimetric alkaline phosphatase substrate was added (SuperSignal ELISA, Thermo scientific, Fisher) and the resulting color reaction was measured using a Viktor multilabel plate reader (PerkinElmer, Courtaboeuf, France). Background absorbance from samples transfected with non-tagged receptors or from cells without first antibodies were systematically measured. […]

[3] = system: GABAAR (β3^HA) at the plasma membrane of CHO co-expressing human UT; test: GABAAR internalization by immunofluorescence in CHO-UT-GABAAR (α2β3^HAγ2); conditions: hUII 10^−8 M, Iso 10^−4 M or both; 60 min (Figure 9 legend); mean ± SEM, 3 to 18 cells
Protocol: as §3, with “Excess antibody was removed and cells were incubated with the different receptor agonists for 30 min at RT.” left out
as §4

Compound | UT at cell surface, U87 (UT in human U87 glioma) | UT at cell surface, human astrocytes [1] | GABAAR internalization without UT [2] | Effect on cell membrane amounts of UT^c-myc (human UT^c-myc) | GABAAR endocytosis [3] [%]
ETPDCFWKYCV (disulfide) [hUII, human urotensin II, synthesized by solid phase methodology] | still present at the cell surface in U87 | UT internalized in native astrocytes | failed to induce GABAAR internalization | without modifying cell membrane amounts of UT^c-myc | 40.29±4.14
O=C(O)C1=CCNCC1 [Iso, isoguvacine] | – | – | remained able to provoke GABAAR removal from the plasma membrane | – | 39.31±2.84
UII: Urotensin II, species not stated at that place (rUII in astrocytes, hUII in CHO and human cells) | failed to internalize UT in CHO and U87 | led to UT loss from human astrocyte surface | – | failed to internalize UT in CHO and U87 | –

— PMC3341351, “Down-Regulation of GABAA Receptor via Promiscuity with the Vasoactive Peptide Urotensin II Receptor. Potential Involvement in Astrocyte Plasticity” (PLoS ONE, 2012)
